Laboratory results: the supplement of paper PMC10933113
Where a name gives a salt, the structure may show the parent alone. ± gives the uncertainty stated by the source.

Assays:
[1] = tested on: cysteine peptide Ac-RFAACAA-COOH; assay: efficacy of cysteine peptide change (negative = depletion) (% activity); higher = less depletion; conditions: incubation time: 24 h
[2] = tested on: cysteine peptide Ac-RFAACAA-COOH; assay: AC50 of cysteine peptide concentration-response (direction given by sign of efficacy); higher = less potent; conditions: incubation time: 24 h
[3] = tested on: lysine peptide Ac-RFAAKAA-COOH; assay: efficacy of lysine peptide change (negative = depletion) (% activity); higher = less depletion; conditions: incubation time: 24 h
THP-1 = assay: efficacy of IL-8 induction relative to DMSO (% activity); higher = stronger induction; conditions: exposure time: 18 h
[4] = tested on: KeratinoSens (HaCaT ARE-luciferase) cells; assay: efficacy of ARE luciferase induction relative to DMSO (% activity over DMSO); higher = stronger induction; conditions: exposure time: 24 h
[5] = tested on: KeratinoSens (HaCaT ARE-luciferase) cells; assay: cytotoxicity AC50 (CellTiter-Fluor viability); higher = less cytotoxic; conditions: exposure time: 24 h
[6] = tested on: KeratinoSens (HaCaT ARE-luciferase) cells; assay: AC50 of Nrf2/ARE luciferase induction; higher = less potent; conditions: exposure time: 24 h

efficacy of cysteine peptide change [1]	AC50 [2] [µM]	efficacy of lysine peptide change [3]	Compound	efficacy of IL-8 induction (THP-1)	efficacy of ARE luciferase induction [4]	cytotoxicity AC50 [5] [µM]	AC50 of Nrf2/ARE luciferase induction [6] [µM]
-84.3 ± 8.4	0.19 ± 0.07	-21.2 ± 1.8	Nc1ccc2cc3ccccc3cc2c1 [2-Aminoanthracene]	22.1 ± 0.99	25.1 ± 4.7	–	–
-69.9 ± 28	2.44 ± 1.8	-14.3 ± 14	Oc1c(Br)cc(Br)c2cccnc12 [Broxyquinoline]	55.7 ± 43	-33.3 ± 3	4 ± 0.46	–
-75.2 ± 18	38.5 ± 5.3	30.4 ± 65	CC[C@@]1(O)C(=O)OCc2c1cc1n(c2=O)Cc2c-1nc1ccccc1c2/C=N/OC(C)(C)C [Gimatecan]	24.2 ± 3.5	57.7 ± 22	0.99 ± 0.6	–
-82.9 ± 1.6	18.7 ± 3.4	17.2 ± 18	CCN(CC)CCSC(=O)C(c1ccccc1)c1ccccc1 [Thiphenamil]	8.63 ± 8	63.3 ± 29	–	–
-105 ± 11	4.18 ± 2.3	-107 ± 3.6	O=C(O)c1cc(O)c2ccccc2c1O [1,4-dihydroxy-2-naphthoic acid*]	31.2 ± 8.8	-34 ± 5.3	13.7 ± 2.3	–
–	–	–	OC12N=C(c3ccccc3)SC1Cc1cc(Cl)ccc12 (configuration not stated) [HMR1426]	0	86.8 ± 69	–	28.9
2.83 ± 4.9	–	0.27 ± 31	c1ccc2[nH]c(-c3cscn3)nc2c1 [Thiabendazole]	11.1 ± 3.7	33 ± 4.4	14.8 ± 1.9	–
-95.2 ± 6.3	2.39 ± 0.7	12.6 ± 12	CCCCC1C(=O)N(c2ccccc2)N(c2ccc(O)cc2)C1=O (configuration not stated) [Oxyphenbutazone]	31.1 ± 25	221 ± 160	11.7 ± 0.79	–
-72.3 ± 21	4.77 ± 1.4	-14.7 ± 8	O=C1c2cccc(O)c2C(=O)c2c(O)cccc21 [Danthron]	2.66 ± 9.7	15 ± 14	–	–
-49.4 ± 8.4	66.8 ± 29	43.7 ± 15	N#Cc1nc(Cl)c(Cl)c(Cl)c1Cl [3,4,5,6-Tetrachloro-2-pyridinecarbonitrile]	85.9 ± 32	38 ± 64	10 ± 3.6	–
-69.8 ± 10	25.9 ± 11	-22.5 ± 15	Oc1ccc(/C=C/c2cc(O)cc(O)c2)cc1 [Resveratrol]	3.12 ± 5.4	29.2 ± 6.2	–	–
-97.3 ± 8	0.36 ± 0.04	-144 ± 8	Oc1ccc2cc(SSc3ccc4cc(O)ccc4c3)ccc2c1 [6-Hydroxy-2-naphthyl disulfide]	52.2 ± 9.7	146 ± 38	–	–
8.93 ± 9.3	–	-35 ± 19	CC(C)C[C@H](NC(=O)[C@H](Cc1ccccc1)NC(=O)c1cnccn1)B(O)O [Bortezomib]	504 ± 17	-42.8 ± 3.7	0.33 ± 0.02	–
8.87 ± 8.5	–	66 ± 24	CCCCCCCCCCCCCCCC[N+](C)(C)Cc1ccccc1 [Benzylhexadecyldimethylammonium chloride]	45 ± 9.3	-36.7 ± 2.6	31.8 ± 3.6	–
-30.6 ± 8	6.04 ± 4.1	2.12 ± 19	C=CC(C)(CCC=C(C)C)OC(=O)CC(C)C (configuration not stated) [Linalyl isovalerate]	0	4.06 ± 7	–	–
-99.8 ± 5.5	13.7 ± 2.3	-21.2 ± 2.9	CCCCC/C=C\C=C\C(=O)OCC [Ethyl (2E,4Z)-deca-2,4-dienoate]	24.4 ± 5.7	68.2 ± 0.72	–	–
-93.8 ± 6.2	0.27 ± 0.14	-45.6 ± 7.5	Nc1cc(Cl)c(O)c(Cl)c1 [4-Amino-2,6-dichlorophenol]	61.6 ± 34	99.2 ± 100	–	–
-117 ± 12	10.6 ± 2.4	-108 ± 8.9	Cc1occc1S [2-Methyl-3-furanthiol]	14 ± 8.6	34.9 ± 23	–	–
-35 ± 6.8	–	26.2 ± 4.5	Nc1ccc(/N=N/c2ccccc2)c(N)n1 [Phenazopyridine hydrochloride]	51.3 ± 29	35.5 ± 17	66.8 ± 15	–
-58.5 ± 10	–	-0.75 ± 9.8	CNC(=S)NN [N-Methylhydrazinecarbothioamide]	91.8 ± 17	-12.3 ± 42	22.5 ± 2.6	–
-96.8 ± 3.7	43.4 ± 7.4	3.75 ± 13	COc1cc(C(C)(C)C)c(O)c(C(C)(C)C)c1 [2,6-Di-tert-butyl-4-methoxyphenol]	0	17.3 ± 33	–	–
-105 ± 8.9	31 ± 7.8	2.29 ± 4	Nc1cc(-c2ccncc2)c[nH]c1=O [Amrinone]	11.6 ± 10	11.6 ± 5.4	–	–

Compound	efficacy of cysteine peptide change [1]	AC50 [2] [µM]	efficacy of lysine peptide change [3]	efficacy of IL-8 induction (THP-1)	efficacy of ARE luciferase induction [4]	cytotoxicity AC50 [5] [µM]	AC50 of Nrf2/ARE luciferase induction [6] [µM]
Fc1ccc(Oc2ccnc3cc(Cl)cc(Cl)c23)cc1 [Quinoxyfen]	3.98 ± 6.9	–	-7.82 ± 12	25.9 ± 3.1	-5.76 ± 35	57 ± 12	–
CCc1cccc(CC)c1N(COC)C(=O)CCl [Alachlor]	0	–	64.4 ± 24	0	35.9 ± 29	48.5 ± 6.7	–
COc1ccccc1N [2-Methoxyaniline hydrochloride]	-74 ± 18	45.5 ± 10	-4.19 ± 7.3	0	68 ± 63	–	–
O=C1C=CC(=O)c2ccccc21 [1,4-NAPHTHOQUINONE*]	-107 ± 5.1	0.53 ± 0.2	-25.7 ± 2.1	37.7 ± 15	-40.2 ± 8.4	8.95 ± 1	–
O=C1C(Cl)=C(Cl)C(=O)C(Cl)=C1Cl [Chloranil]	-73.9 ± 2.3	0.65 ± 0.34	-124 ± 7.8	25.9 ± 3.2	32.8 ± 9.5	28.2	–
CC(C)Nc1ccc(Nc2ccccc2)cc1 [N-Isopropyl-N'-phenyl-p-phenylenediamine]	-67.5 ± 20	2.82 ± 1	-5.38 ± 9.3	40.6 ± 19	-24.8 ± 11	20.5 ± 6.5	–
c1cc(OCC2CO2)cc(OCC2CO2)c1 (configuration not stated) [Diglycidyl resorcinol ether (DGRE)]	-8.5 ± 7.8	–	46.9 ± 8.6	29.2 ± 11	74.5 ± 5.8	63.9 ± 12	–
O=C(N/N=C/c1ccc([N+](=O)[O-])o1)c1cc([N+](=O)[O-])cc([N+](=O)[O-])c1O [Nifursol]	-105 ± 6.6	77.9 ± 29	-10.9 ± 19	0	25.2 ± 9.3	–	–
CS/C(C)=N\OC(=O)N(C)SN(C)C(=O)O/N=C(\C)SC [Thiodicarb]	-96.8 ± 3.2	0.59 ± 0.11	38.2 ± 2.7	10.8 ± 9.8	-25.2 ± 33	–	–
Nc1cc(Cl)ccc1O [2-Amino-4-chlorophenol]	-103 ± 8.1	2.44 ± 1.1	-22.2 ± 9	14 ± 3	60.7 ± 16	48.3 ± 3.1	–
